From publication PMC10303363, “Synthesis and Preclinical Evaluation of Novel ^68Ga-Labeled (R)-Pyrrolidin-2-yl-boronic Acid-Based PET Tracers for Fibroblast Activation Protein-Targeted Cancer Imaging” (Pharmaceuticals, 2023)
“And” between values parts separate entries of the source, which are not always exact repeats. Equal entries are not always repeated.

Tests used:
bone and muscle = test system: bone and muscle; parameters: method as in PMID 30850501, PMID 32332144, PMID 33721173, PMID 23712432, PMID 34620730; settings: mice; cited from earlier work
FAP [1] = assay: FAP inhibition reported by Jansen et al. (literature); format: biochemical; settings: from literature IC50 values
FAP [2] = settings: cited from earlier work
DPPs = settings: cited from earlier work
PREP = settings: cited from earlier work
[3] = test system: HEK293T:hFAP tumor-bearing mice; assay: Ex vivo biodistribution study; format: in vivo; settings: 1 h pi; for Adrenal Glands uptake / Blood uptake / Bone uptake / Brain uptake / Fat uptake / Heart uptake / Kidneys uptake / Large Intestines uptake / Liver uptake / Lungs uptake / Muscle uptake / Pancreas uptake / Small Intestine uptake / Spleen uptake / Stomach uptake / Testes uptake / Thyroid uptake / Tumor uptake / Tumor/Blood uptake ratio / Tumor/Bone uptake ratio / Tumor/Kidney uptake ratio / Tumor/Muscle uptake ratio: n = 4
Procedure: (§1) Imaging and biodistribution studies were performed using immunodeficient male NRG (NOD.Cg-Rag1tm1Mom Il2rgtm1Wjl/SzJ) mice following previously reported procedures. All experiments were conducted according to the guidelines established by the Canadian Council on Animal Care and approved by Animal Ethics Committee of the University of British Columbia. The mice were subcutaneously inoculated with 7.5 × 10^6 HEK293T:hFAP cells in the left dorsal flank. When the tumors grew to 6–8 mm in diameter, the mice were used for PET/CT imaging and biodistribution studies.
For the biodistribution studies, the mice were injected with ~1–2 MBq of the ^68Ga-labeled tracer, using the exact procedures as described above. At 1 h pi, the mice were euthanized by CO2 inhalation. Blood was withdrawn by a cardiac puncture, and the organs/tissues of interest were collected, weighed and counted using a Perkin Elmer (Waltham, MA, USA) Wizard2 2480 automatic gamma counter. The uptake values in percent of injected dose per gram of tissues (%ID/g) for the different tracers were calculated.
(§2) For blocking studies, HEK293T:hFAP tumor-bearing mice were co-injected [^68Ga]Ga-SB04028 with an excess of FAPI-04 (0.5 mg/mouse) as a competitor. Imaging and biodistribution studies were performed at 1 h pi similar to the unblocked mice.

[4] = test system: HEK293T:hFAP tumor xenograft; assay: PET/CT imaging; format: in vivo, mice; settings: 1 h pi; for tumor on PET/CT image: HEK293T:hFAP tumor xenograft, unblocked
Procedure: as §1
The PET/CT imaging experiments were carried out using a Siemens Inveon micro PET/CT scanner (Knoxville, TN, USA). Tumor-bearing mice were injected with ~4 to 6 MBq of ^68Ga-labeled tracer through a lateral caudal tail vein under 2.5% isoflurane in oxygen anesthesia, followed by recovery and free roaming in their cage during the uptake period. A 10 min localization CT scan was acquired using 3 overlapping positions to cover the entire mouse. The CT scan was used for the attenuation and scatter correction, and anatomical localization. A list mode acquisition was then performed for 15 min at 1 h pi with the mouse under isoflurane sedation. The images were reconstructed using 3D OSEM/MAP iterative methods.
as §2

[5] = In vivo stability study (radio-HPLC of plasma and urine); parameters: species or system mice; settings: 15 min pi; for fraction of tracer remaining intact in plasma / fraction of tracer remaining intact in urine: male NRG mice, n = 3
Procedure: In vivo stability studies were performed using healthy (non-tumor-bearing) male NRG mice following previously reported procedures. Briefly, [^68Ga]Ga-SB02055 (6.32 ± 0.16 MBq) and [^68Ga]Ga-SB04028 (9.90 ± 0.26 MBq) were injected via the lateral caudal vein into the mice (n = 3). At 15 min pi, the mice were sedated and euthanized, and urine and blood were collected. The blood was processed to obtain plasma by adding 0.5 mL of acetonitrile to 0.5–0.8 mL of whole blood, then vortexing and centrifuging the resulting mixture on a benchtop mini-centrifuge (Fisherbrand™ Mini-Centrifuge 100–240 V, 50/60 Hz Universal Plug) for 20 min. The supernatant was collected and filtered to give the blood plasma. The plasma and urine samples were analyzed via radio-HPLC by using the same conditions as those used for quality control of these ^68Ga-labeled radioligands.

[6] = test system: HEK-mFAP murine tumor model; parameters: method as in doi:10.1158/1538-7445.AM2022-3303; settings: single dose; cited from earlier work
[7] = test system: FAP-positive SK-Mel-187 melanoma xenograft; parameters: method as in PMID 25633335; settings: in vitro; cited from earlier work
[8] = parameters: method as in PMID 35631416; settings: patients, after administrating 740 MBq; cited from earlier work
tumor = test system: tumor; parameters: method as in doi:10.1158/1538-7445.AM2022-3303; settings: up to 168 h pi; cited from earlier work
[9] = HEK293T:hFAP tumor-bearing male NRG mice, unblocked
[10] = HEK293T:hFAP tumor-bearing mice
[11] = HEK293T:hFAP tumor-bearing mice, blocked: co-injected with FAPI-04 (0.5 mg/mouse)

N#C[C@@H]1CC(F)(F)CN1C(=O)CNC(=O)c1ccnc2ccc(OCCCN3CCN(C(=O)CN4CCN(CC(=O)[O-])CCN(CC(=O)[O-])CCN(CC(=O)[O-])CC4)CC3)cc12.[68Ga+3] [[^68Ga]Ga-FAPI-04]
uptake in the bone and muscle (bone and muscle): high uptake

O=C(NCC(=O)N1CCC[C@H]1B(O)O)c1ccnc2ccccc12 [N-(4-quinolinoyl)-Gly-boroPro]
fold higher FAP binding affinity than N-(4-quinolinoyl)-Gly-(2-cyanopyrrolidine) (FAP [1]): 2.8 fold
IC50 (FAP [2]): 3.7 ± 0.2 nM
selectivity over DPPs (DPPs): > 10^3
selectivity over PREP (PREP): ~ 3 fold

CC(NC(=O)c1ccnc2ccc(OCCCN3CCN(C(=O)CN4CCN(CC(=O)[O-])CCN(CC(=O)[O-])CCN(CC(=O)[O-])CC4)CC3)cc12)C(=O)N1CCCC1B(O)O.[68Ga+3] (centres unmarked) [[^68Ga]Ga-SB04028]
reduction of average tumor uptake upon co-injection with FAPI-04 ([3]; FAPI-04 0.5 mg/mouse, HEK293T:hFAP tumor-bearing mice): ~ 97%
Adrenal Glands uptake [3, 9]: 0.14 ± 0.10 %ID/g
Blood uptake [3, 9]: 0.97 ± 0.03 %ID/g
Bone uptake [3, 9]: 0.24 ± 0.09 %ID/g
Brain uptake [3, 9]: 0.02 ± 0.00 %ID/g
Fat uptake [3, 9]: 0.07 ± 0.01 %ID/g
Heart uptake [3, 9]: 0.24 ± 0.02 %ID/g
Kidneys uptake [3, 9]: 2.10 ± 0.33 %ID/g
Large Intestines uptake [3, 9]: 0.13 ± 0.03 %ID/g
Liver uptake [3, 9]: 0.32 ± 0.03 %ID/g
Lungs uptake [3, 9]: 0.59 ± 0.04 %ID/g
Muscle uptake [3, 9]: 0.13 ± 0.01 %ID/g
Pancreas uptake [3, 9]: 0.18 ± 0.02 %ID/g
Small Intestine uptake [3, 9]: 0.34 ± 0.02 %ID/g
Spleen uptake [3, 9]: 0.25 ± 0.04 %ID/g
Stomach uptake [3, 9]: 0.06 ± 0.01 %ID/g
Testes uptake [3, 9]: 0.18 ± 0.02 %ID/g
Thyroid uptake [3, 9]: 0.35 ± 0.00 %ID/g
Tumor uptake [3, 9]: 10.1 ± 0.42 %ID/g
Tumor/Blood uptake ratio [3, 9]: 10.4 ± 0.70
Tumor/Bone uptake ratio [3, 9]: 48.1 ± 20.5
Tumor/Kidney uptake ratio [3, 9]: 4.89 ± 0.72
Tumor/Muscle uptake ratio [3, 9]: 79.9 ± 7.50
fold higher tumor uptake compared to [68Ga]Ga-PNT6555 [3, 10]: ~ 1.5 fold and > 1.5 fold
Adrenal Glands uptake [3, 11]: 0.09 ± 0.06 %ID/g
Blood uptake [3, 11]: 0.49 ± 0.13 %ID/g
Bone uptake [3, 11]: 0.01 ± 0.00 %ID/g
Brain uptake [3, 11]: 0.02 ± 0.00 %ID/g
Fat uptake [3, 11]: 0.14 ± 0.13 %ID/g
Heart uptake [3, 11]: 0.11 ± 0.00 %ID/g
Kidneys uptake [3, 11]: 2.53 ± 0.57 %ID/g
Large Intestines uptake [3, 11]: 0.08 ± 0.03 %ID/g
Liver uptake [3, 11]: 0.30 ± 0.05 %ID/g
Lungs uptake [3, 11]: 0.78 ± 0.37 %ID/g
Muscle uptake [3, 11]: 0.66 ± 0.12 %ID/g
Pancreas uptake [3, 11]: 0.09 ± 0.02 %ID/g
Small Intestine uptake [3, 11]: 0.34 ± 0.04 %ID/g
Spleen uptake [3, 11]: 0.18 ± 0.02 %ID/g
Stomach uptake [3, 11]: 0.03 ± 0.00 %ID/g
Testes uptake [3, 11]: 0.12 ± 0.01 %ID/g
Thyroid uptake [3, 11]: 0.14 ± 0.01 %ID/g
Tumor uptake [3, 11]: 0.30 ± 0.04 %ID/g
Tumor/Blood uptake ratio [3, 11]: 0.63 ± 0.09
Tumor/Bone uptake ratio [3, 11]: 33.9 ± 13.3
Tumor/Kidney uptake ratio [3, 11]: 0.12 ± 0.03
Tumor/Muscle uptake ratio [3, 11]: 0.46 ± 0.06
tumor uptake on PET/CT image upon co-injection with FAPI-04 ([4]; FAPI-04 0.5 mg/mouse): reduced the tumor uptake to the background level
tumor on PET/CT image [4]: clear visualization
fraction of tracer remaining intact in plasma [5]: 46.6 ± 0.21%
fraction of tracer remaining intact in urine [5]: 53.6 ± 7.11% and > 54%

CC(NC(=O)c1ccc(CNC(=O)CN2CCN(CC(=O)[O-])CCN(CC(=O)[O-])CCN(CC(=O)[O-])CC2)cc1)C(=O)N1CCCC1B(O)O.[225Ac+3] (centres unmarked) [[^225Ac]Ac-PNT6555]
anti-tumor efficacy [6]: dose-dependent anti-tumor efficacy

O=C(NCC(=O)N1CCC[C@H]1B(O)O)c1ccc([125I])cc1 [[^125I]MIP-1232]
accumulation in FAP-positive SK-Mel-187 melanoma xenograft [7]: strongly accumulate

CC(NC(=O)c1ccc(CNC(=O)CN2CCN(CC(=O)[O-])CCN(CC(=O)[O-])CCN(CC(=O)[O-])CC2)cc1)C(=O)N1CCCC1B(O)O.[68Ga+3] (centres unmarked) [[^68Ga]Ga-PNT6555, reference compound]
Adrenal Glands uptake [3, 9]: 0.56 ± 0.89 %ID/g
Blood uptake [3, 9]: 0.60 ± 0.04 %ID/g
Bone uptake [3, 9]: 0.45 ± 0.12 %ID/g
Brain uptake [3, 9]: 0.02 ± 0.00 %ID/g
Fat uptake [3, 9]: 0.06 ± 0.02 %ID/g
Heart uptake [3, 9]: 0.17 ± 0.01 %ID/g
Kidneys uptake [3, 9]: 2.29 ± 0.43 %ID/g
Large Intestines uptake [3, 9]: 0.11 ± 0.03 %ID/g
Liver uptake [3, 9]: 1.49 ± 0.11 %ID/g
Lungs uptake [3, 9]: 0.42 ± 0.04 %ID/g
Muscle uptake [3, 9]: 0.12 ± 0.02 %ID/g
Pancreas uptake [3, 9]: 0.13 ± 0.02 %ID/g
Small Intestine uptake [3, 9]: 0.64 ± 0.10 %ID/g
Spleen uptake [3, 9]: 0.21 ± 0.08 %ID/g
Stomach uptake [3, 9]: 0.11 ± 0.05 %ID/g
Testes uptake [3, 9]: 0.16 ± 0.03 %ID/g
Thyroid uptake [3, 9]: 0.26 ± 0.02 %ID/g
Tumor uptake [3, 9]: 6.38 ± 0.45 %ID/g
Tumor/Blood uptake ratio [3, 9]: 10.7 ± 1.29
Tumor/Bone uptake ratio [3, 9]: 14.9 ± 3.34
Tumor/Kidney uptake ratio [3, 9]: 2.87 ± 0.59
Tumor/Muscle uptake ratio [3, 9]: 52.6 ± 5.86

[^99mTc]Tc-HYNIC-D-Ala-boroPro [[^99mTc]Tc-iFAP]
effective dose [8]: 2.3 ± 0.4 mSv
mean radiation equivalent dose for the kidney [8]: 5.2 ± 0.8 mSv

CC(NC(=O)c1ccc(CNC(=O)CN2CCN(CC(=O)[O-])CCN(CC(=O)[O-])CCN(CC(=O)[O-])CC2)cc1)C(=O)N1CCCC1B(O)O.[177Lu+3] (centres unmarked) [[^177Lu]Lu-PNT6555]
tumor retention (tumor): > 10 %ID/g
anti-tumor efficacy [6]: dose-dependent anti-tumor efficacy

O=C([O-])CN1CCN(CC(=O)[O-])CCN(CC(=O)N2CCN(CCCOc3ccc4nccc(C(=O)NCC(=O)N5CCCC5B(O)O)c4c3)CC2)CCN(CC(=O)[O-])CC1.[68Ga+3] (centres unmarked) [[^68Ga]Ga-SB02055]
Adrenal Glands uptake [3, 9]: 1.17 ± 1.13 %ID/g
Blood uptake [3, 9]: 3.13 ± 1.25 %ID/g
Bone uptake [3, 9]: 1.14 ± 0.37 %ID/g
Brain uptake [3, 9]: 0.05 ± 0.02 %ID/g
Fat uptake [3, 9]: 0.16 ± 0.05 %ID/g
Heart uptake [3, 9]: 1.23 ± 0.48 %ID/g
Kidneys uptake [3, 9]: 1.74 ± 0.95 %ID/g
Large Intestines uptake [3, 9]: 0.56 ± 0.24 %ID/g
Liver uptake [3, 9]: 0.94 ± 0.27 %ID/g
Lungs uptake [3, 9]: 1.20 ± 0.35 %ID/g
Muscle uptake [3, 9]: 0.63 ± 0.20 %ID/g
Pancreas uptake [3, 9]: 2.07 ± 0.83 %ID/g
Small Intestine uptake [3, 9]: 0.80 ± 0.29 %ID/g
Spleen uptake [3, 9]: 0.85 ± 0.27 %ID/g
Stomach uptake [3, 9]: 0.53 ± 0.36 %ID/g
Testes uptake [3, 9]: 0.26 ± 0.10 %ID/g
Thyroid uptake [3, 9]: 1.49 ± 0.47 %ID/g
Tumor uptake [3, 9]: 1.08 ± 0.37 %ID/g
Tumor/Blood uptake ratio [3, 9]: 0.35 ± 0.03
Tumor/Bone uptake ratio [3, 9]: 0.95 ± 0.06
Tumor/Kidney uptake ratio [3, 9]: 0.67 ± 0.15
Tumor/Muscle uptake ratio [3, 9]: 1.72 ± 0.19
fold lower tumor uptake than [68Ga]Ga-PNT6555 [3, 10]: ~ 6 fold
tumor on PET/CT image [4]: negligible
fraction of tracer remaining intact in plasma [5]: no intact
fraction of tracer remaining intact in urine [5]: 93.5 ± 0.91% and > 93%
plasma fraction of unidentified highly hydrophilic 68Ga-labeled species ([5]; mouse plasma): > 99%
